# ChEMBL document CHEMBL4138229, “Recent discovery of indoleamine-2,3-dioxygenase 1 inhibitors targeting cancer immunotherapy” (Eur J Med Chem, 2018)
# What was measured:
# [1] = biological target: T1, Indoleamine 2,3-dioxygenase 2 (Homo sapiens, UniProt Q6ZQW0); experiment: Inhibition of human IDO2 using Trp as substrate after 90 mins by Bridge-IT tryptophan fluorescence assay
# T1 sequence (Q6ZQW0 whole entry): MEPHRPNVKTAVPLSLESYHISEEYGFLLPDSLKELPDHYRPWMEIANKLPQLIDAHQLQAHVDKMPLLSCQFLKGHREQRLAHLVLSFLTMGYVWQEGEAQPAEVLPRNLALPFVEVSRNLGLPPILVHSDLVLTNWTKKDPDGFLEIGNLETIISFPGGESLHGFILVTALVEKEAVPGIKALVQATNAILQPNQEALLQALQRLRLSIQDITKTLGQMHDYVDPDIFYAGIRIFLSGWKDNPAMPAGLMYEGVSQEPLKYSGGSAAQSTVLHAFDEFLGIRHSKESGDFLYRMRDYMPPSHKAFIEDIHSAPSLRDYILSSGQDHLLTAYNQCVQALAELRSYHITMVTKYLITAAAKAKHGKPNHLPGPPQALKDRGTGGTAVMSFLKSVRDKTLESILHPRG
# [2] = biological target: T2, Tryptophan 2,3-dioxygenase (Homo sapiens, UniProt P48775); experiment: Inhibition of human TDO using Trp as substrate after 90 mins by Bridge-IT tryptophan fluorescence assay
# T2 sequence (P48775 whole entry): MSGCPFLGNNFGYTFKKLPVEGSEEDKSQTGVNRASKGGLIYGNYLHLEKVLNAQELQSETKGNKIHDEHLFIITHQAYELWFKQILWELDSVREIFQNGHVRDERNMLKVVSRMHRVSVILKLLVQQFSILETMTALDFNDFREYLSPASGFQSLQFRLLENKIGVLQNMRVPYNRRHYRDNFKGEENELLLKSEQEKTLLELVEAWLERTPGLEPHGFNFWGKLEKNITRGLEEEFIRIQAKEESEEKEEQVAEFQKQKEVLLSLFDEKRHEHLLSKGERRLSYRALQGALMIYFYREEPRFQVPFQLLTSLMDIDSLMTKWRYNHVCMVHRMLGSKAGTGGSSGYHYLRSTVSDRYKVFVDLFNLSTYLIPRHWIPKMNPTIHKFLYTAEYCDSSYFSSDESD
# [3] = biological target: T3, Indoleamine 2,3-dioxygenase 1 (Homo sapiens, UniProt P14902); experiment: Inhibition of human IDO1 assessed as reduction in kynurenine production
# T3 sequence (P14902 whole entry): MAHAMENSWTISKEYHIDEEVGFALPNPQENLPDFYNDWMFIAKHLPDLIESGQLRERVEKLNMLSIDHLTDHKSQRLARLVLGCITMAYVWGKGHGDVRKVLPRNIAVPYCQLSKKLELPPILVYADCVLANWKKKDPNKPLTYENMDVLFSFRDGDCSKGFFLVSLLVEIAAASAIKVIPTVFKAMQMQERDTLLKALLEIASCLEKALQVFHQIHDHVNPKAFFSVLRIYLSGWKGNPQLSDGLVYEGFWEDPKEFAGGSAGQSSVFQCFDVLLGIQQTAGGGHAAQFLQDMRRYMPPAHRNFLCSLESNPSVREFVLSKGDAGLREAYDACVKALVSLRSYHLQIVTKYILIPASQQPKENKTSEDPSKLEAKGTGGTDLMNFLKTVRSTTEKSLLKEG
# [4] = biological target: T3, Indoleamine 2,3-dioxygenase 1; experiment: Inhibition of IDO1 in human HeLa assessed as reduction in kynurenine production; assay type: cell-based
# [5] = biological target: T3, Indoleamine 2,3-dioxygenase 1; experiment: Inhibition of IDO1 in human HeLa cells assessed as reduction in kynurenine production; assay type: cell-based
# [6] = biological target: T3, Indoleamine 2,3-dioxygenase 1; experiment: Inhibition of IDO1 (unknown origin) after 60 mins
# [7] = biological target: T3, Indoleamine 2,3-dioxygenase 1; experiment: Inhibition of IDO1 (unknown origin) assessed as reduction in kynurenine production by spectraphotometric assay
# [8] = biological target: T2, Tryptophan 2,3-dioxygenase; experiment: Inhibition of TDO (unknown origin)
# [9] = biological target: T2, Tryptophan 2,3-dioxygenase; experiment: Inhibition of human TDO expressed in T-REx-293 cells; assay type: cell-based
# [10] = biological target: Indoleamine 2,3-dioxygenase 1 (Mus musculus, UniProt P28776); experiment: Inhibition of IDO1 in mouse P815 Clone 12 cells assessed as reduction in kynurenine production incubated for 16 to 18 hrs; assay type: cell-based
# Chain of Indoleamine 2,3-dioxygenase 1 (Mus musculus, UniProt P28776) (P28776 whole entry): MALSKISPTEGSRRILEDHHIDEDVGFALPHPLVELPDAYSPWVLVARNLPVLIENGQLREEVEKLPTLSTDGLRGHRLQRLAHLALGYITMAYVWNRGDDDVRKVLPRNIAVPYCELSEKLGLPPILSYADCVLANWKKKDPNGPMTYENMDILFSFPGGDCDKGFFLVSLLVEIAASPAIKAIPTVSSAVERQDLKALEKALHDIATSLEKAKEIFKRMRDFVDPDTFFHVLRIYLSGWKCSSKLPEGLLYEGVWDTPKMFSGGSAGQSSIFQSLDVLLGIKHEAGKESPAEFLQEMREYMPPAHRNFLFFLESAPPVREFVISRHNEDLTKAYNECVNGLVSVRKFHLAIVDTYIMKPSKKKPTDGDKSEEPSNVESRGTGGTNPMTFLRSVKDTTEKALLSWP
structure (smiles),measurement,setting,value
Cc1ccc(-c2csc3nnc(SCC(=O)Nc4ccc5c(c4)OCO5)n23)cc1,IC50,[1],> 250000 nM
same,IC50,[2],> 62500 nM
NS(=O)(=O)NC1(CCNc2nonc2/C(=N/O)Nc2ccc(F)c(Br)c2)CC1,IC50,[3],18 nM
same,IC50,[4],3 nM
CS(=O)(=NC#N)NCCNc1nonc1/C(=N/O)Nc1ccc(F)c(Br)c1 (stereo unspecified),IC50,[5],1.8 nM
same,IC50,[6],11 nM
O/N=C(/CCC1CCCCC1)Nc1cccc(Cl)c1,IC50,[7],< 1000 nM
O[C@H](C[C@H]1c2c(F)cccc2-c2cncn21)[C@H]1CC[C@H](O)CC1 [NAVOXIMOD],IC50,[8],140 nM
same,IC50,[9],1500 nM
O=C1CC(c2c[nH]c3ccc(F)cc23)C(=O)N1 (stereo unspecified) [PF-06840003],IC50,[8],> 50000 nM
same,IC50,[10],94 nM
